pEC50: −log10 of the molar value.
What was measured:
[1] = tested on: DENV-3 replicon; experiment: Luciferase reporter replicon-based screening, DENV-3; type: cell-based, DENV-3 (strain D3MY05-34640); conditions: Dengue virus, DENV3, Huh-7, 48 h, read-out: EC50 DENV-3, Huh7 cells stably expressing DENV-3 replicon, 48 h
Method in brief: (§1)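 Huh7 cells carrying Renilla luciferase/neo replicons of DENV-1 (WestPac), DENV-2 (NGC), DENV-3 (D3MY05-34640) or DENV-4 (D4MY01-22713), treated with 2-fold compound dilutions for 48 h at 37 °C in duplicate. Live-cell luciferase read; EC50 by four-parameter logistic fit.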

[2] = tested on: DENV-2 strain NGC; experiment: Viral titer reduction assay, DENV-2 strain NGC; type: cell-based; conditions: Dengue virus, DENV2, Huh-7; viral titer reduction assay on Huh7 cells
Experimental: Viral Titer Reduction Assay. Huh7 cells were seeded in a 96-well plate. The next day, cells were infected with DENV-2 strains NGC or D2Y98P at a MOI of 0.3 in the presence of 2-fold serial dilutions of compounds. Experiments were performed in triplicates. After incubation at 37° C. for 48 h, cell culture fluids were harvested. The infectious viruses in the culture fluids were determined by plaque assay using a protocol as described previously.^48 The EC50 values were calculated using four parameter logistic regression in GraphPad software Prism 8.0.

[3] = tested on: DENV-1 replicon; experiment: Luciferase reporter replicon-based screening, DENV-1; type: cell-based, DENV-1 (strain WestPac); conditions: Dengue virus, DENV1, Huh-7, 48 h, read-out: EC50 DENV-1
Method in brief: as §1

[4] = Cytotoxicity assay (CellTiter-Glo); type: cell-based; conditions: human, Huh7 cells stably expressing DENV-2 replicon
Method in brief: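 Huh7 or Huh7 replicon cells, seeded overnight at 37 °C, exposed to 2-fold serial dilutions of compound for 48 h in duplicate. Viability by CellTiter-Glo, normalised to 0.45% DMSO wells (100%); CC50 by four-parameter logistic regression.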

[5] = tested on: DENV-2 replicon; experiment: Luciferase reporter replicon-based screening, DENV-2; type: cell-based, DENV-2 (New Guinea C strain, NGC); conditions: Dengue virus, DENV2, Huh-7, 48 h, read-out: EC50 DENV-2, Huh7 cells stably expressing DENV-2 replicon, 48 h
Method in brief: as §1

[6] = in vivo; type: in vivo, male SD rats
Experimental: In Vivo PK Studies. The PK profiles of compound 15 were determined in male SD rats following intravenous (i.v.) and oral (p.o.) administration of 10 and 20 mg/kg, respectively. The formulations used for i.v. and p.o. were solution in DMSO: 20% HP-β-CD in saline = 1:9. IV bolus injection, animal number N = 3; dose level: 10 mg/kg; sample collection time points: 5 min, 15 min, 30 min, 1 h, 2 h, 4 h, 8 h, 24 h; PO: animal number N = 3; fasting 12 h, dose level: 20 mg/kg; sample collection time points: 15 min, 30 min, 1 h, 2 h, 4 h, 8 h, 24 h. Plasma concentrations of compound 15 were measured by API-4000/5500 LC-MS/MS with 8 point standard curve and 6 QCs. Pharmacokinetic parameters were calculated by a non-compartmental approach using WinNonLin software.

[7] = tested on: DENV-4 replicon; experiment: Luciferase reporter replicon-based screening, DENV-4; type: cell-based, DENV-4 (strain D4MY01-22713); conditions: Dengue virus, DENV4, Huh-7, 48 h, read-out: EC50 DENV-4
Method in brief: as §1

[8] = tested on: P12 resistant DENV-2 viruses (NS4B V63M or V63L); type: cell-based, DENV-2 strain NGC

CC(C)CCN1C(=O)[C@]2(CC(=O)Nc3c2nnn3[C@@H](C)c2ccc(Cl)cc2)c2cc(Cl)ccc21 [Compound 15, (R)-5'-Chloro-3-((S)-1-(4-chlorophenyl)ethyl)-1'-isopentyl-4,6-dihydrospiro[[1,2,3]triazolo[4,5-b]pyridine-7,3'-indoline]-2ʹ,5(3H)-dione]
pEC50 [1]: 7.46 | pEC50 [2]: ~7.00 | pEC50 [3]: 6.11 | CC50 at 48 h [4]: > 10 µM | pEC50 [5]: 6.80 | AUC0- ∞ ([6]; iv 10 mg/kg, rat plasma): 10,334 ng·h/mL | CL ([6]; iv 10 mg/kg, rat plasma): 13.7 mL/min/kg | Cmax ([6]; iv 10 mg/kg, rat plasma): 10,334 ng/mL | MRT ([6]; iv 10 mg/kg, rat plasma): 2.28 h | Vss ([6]; iv 10 mg/kg, rat plasma): 2.67 L/kg | t½ ([6]; iv 10 mg/kg, rat plasma): 2.29 h | Tmax ([6]; male, SD, in vivo, po 20 mg/kg, rat plasma): 1 h | bioavailability ([6]; male, SD, rat, in vivo, po 20 mg/kg vs iv 10 mg/kg, rats, read-out: F (absolute oral bioavailability)): 30% | AUC0- ∞ ([6]; po 20 mg/kg, rat plasma): 6,240 ng·h/mL | CL ([6]; po 20 mg/kg, rat plasma): 59.5 mL/min/kg | Cmax ([6]; po 20 mg/kg, rat plasma): 1,517 ng/mL | MRT ([6]; po 20 mg/kg, rat plasma): 3.46 h | Vss ([6]; po 20 mg/kg, rat plasma): 11.54 L/kg | t½ ([6]; po 20 mg/kg, rat plasma): 2.24 h | pEC50 [7]: < 5.30 | increase of viral resistance by mutation NS4B V63L ([8]; P12-VI virus, Huh7 cells): 16 folds | pEC50 ([8]; viral reduction assay on Huh7 cells, read-out: EC50 against resistant viruses P12-VI): 5.70

Reference: patent US20230056205A1, “SUBSTITUTED 4,6-DIHYDROSPIRO[[1,2,3]TRIAZOLO[4,5-B]PYRIDINE-7,3'-INDOLINE]-2',5(3H)-DIONE ANALOGUES” (The Board of Regents of The University of Texas System, priority 2019, published 2023)
